These results are taken from US20160199320A1, “Ophthalmic Treatments” (Optosolve Research & Development Limited, priority 2011, published 2016).

Series [1] concerns eye. Put plainly: pilocarpine drops for constriction of the pupil, with or without tramadol drops. Format: in vivo. The method, then: In a first example, an eye was treated with pilocarpine drops to cause constriction of the pupil (in this particular example, as part of an ophthalmic diagnostic procedure, although pilocarpine is also be used therapeutically). Such drops can cause significant discomfort and excessive tear formation, possibly washing pilocarpine out of the eye before it could take effect. […] This implies that the tramadol may well be improving the absorption of other drugs.

In the next series the test system is undamaged eye. The following applies: topically applied to an undamaged eye; cited from earlier work.
The test system of series [2] is eye. Nature of the series: ciclosporin composition with added tramadol, post-operative treatment following a corneal transplant. It counts as in vivo. The following applies: addition of 0.5% w/v tramadol to the composition. From the text: In a second example, a composition containing ciclosporin would normally be administered to the eye in post-operative treatment following a corneal transplant, to avoid transplant rejection. However, this would lead to significant additional levels of discomfort in the eye.

In series [3] the test system is eye. Put plainly: eye-drop formulation with tramadol in the left eye of a healthy subject, sensation in the eye. It counts as in vivo, human. The following applies: 0.5% w/v tramadol eye-drop. The method, then: In a third example, a conventional ophthalmic eye-drop formulation was made up, but with the addition of 0.5% w/v tramadol. This formulation was administered to the left eye of a healthy subject. […] Sensation in the right eye remained normal.

The subject of series [4] is eye. Put plainly: fourth example: patient suffering from dry-eye, tramadol eye-drops, artificial tears, or combination. Format: in vivo, human. The following applies: topical. From the text: In a fourth example, administration of the tramadol-containing eye-drop formulation of the third example to a patient suffering from “dry-eye” reduced the resultant discomfort as expected. […] However, the discomfort remained, which for many patients would lead to actions such as rubbing the affected eye, counteracting much of the improvement.

Series [5] has as its system eye. Put plainly: sixth example: tramadol eye-drops in a painful infection of the eye. It counts as in vivo, human. From the text:
In a sixth example, an infection of the subject's eye required treatment with antibiotics. However, the subject was unable to open the respective eyelid due to the consequent pain.

Series [6] relates to eye. Put plainly: seventh example: tramadol eye-drops in allergic eye disease. It counts as in vivo, human. From the text: In a seventh example, a person presented with an allergic eye disease, resulting in significant prolonged itchiness.
Series [7] concerns eye. Put plainly: eighth example: tramadol eye-drops in dry eyes with unstable tear films, tear osmolarity and pain. Format: in vivo, human. The following applies: for pain: dry eye. From the text:
In an eighth example, a person presented with dry eyes and unstable tear films, typical symptoms of “dry eye”. The patient's tear osmolarity improved, after use of an eye-drop containing 0.5% w/v tramadol in one eye, from 312 milliOsmoles before instillation of the eye drop to 299 milliOsmoles one hour after instillation.

Series [8] has as its system eye. Put plainly: ninth example: tramadol eye-drops in blepharitis with reduced tear break-up time. Format: in vivo, human. The note with it: eye-drops containing 1.0% w/v tramadol. From the text:
In a ninth example, a middle-aged person with blepharitis and no corneal staining but a reduced tear break-up time was given eye-drops containing 1.0% w/v tramadol.

Setting [9] is: drops containing tramadol administered before or in conjunction with the pilocarpine drops.
Setting [10] is: tramadol 0.5% w/v where present.
Where [11] appears, read: eye-drop formulation comprising 0.5% w/v tramadol.
[12] abbreviates: middle-aged person with blepharitis.

Regarding `CC[C@@H]1C(=O)OC[C@@H]1Cc1cncn1C` [pilocarpine], the “effectiveness in constriction of the pupil” value with eye [1] (0.5% w/v pilocarpine administered promptly after or in conjunction with tramadol) is recorded as “as effective as 1% w/v pilocarpine administered without tramadol present”.
For `CN1CC[C@]23c4c5ccc(O)c4O[C@H]2[C@@H](O)C=C[C@H]3[C@H]1C5` [morphine], in the series on undamaged eye, the analgesic effect entry was “very little or no analgesic effect”.
Turning to `COc1cccc(C2(O)CCCCC2CN(C)C)c1` (centres unmarked) [tramadol], in the series on eye [1] (setting [9]), the “discomfort caused by pilocarpine drops” value is reported as “greatly reduced” and the “tear formation caused by pilocarpine drops” value is recorded as “greatly reduced”. In the series on eye [2], the “effectiveness of the ciclosporin” value is reported as “improve”. The “discomfort in the eye from ciclosporin composition” value in the series with eye [2] (post corneal transplant) is “significantly reduce”. In addition, in the series with eye [3], the “duration of numbing effect” value was “at least 110 minutes”, the side-effects entry is “No side-effects were noted” and the “time to noticeably reduced sensation in the eye after instillation” value was at most 3 min. Moreover, in the series on eye [4] (tramadol 0.5% w/v), the blinking entry is reported as “reduction in blinking”. Besides, in the series with eye [4] (setting [10]), the discomfort / pain result is recorded as “reduced”; the “dryness / lubrication of the eye” value is listed as “dryness remained”; the “physical signs (symptoms and signs)” value is listed as “did not improve”. Moreover, the “resolution of the infection” value with eye [5] (0.5% w/v tramadol followed by antibiotics) was “more rapidly than would have been expected”. In the series with eye [5] (setting [11]), the discomfort entry was “rapidly reduced”, the “opening of the eyelid” value is listed as “permitting opening of the eyelid” and the “vision in the treated eye” value is “allowed reasonable vision”. In addition, in the series on eye [6] (allergic eye disease, eye-drop containing 0.5% w/v tramadol, versus saline drops alone), the associated redness result is on record as “improved with time faster than for the conventional treatment with saline drops alone”. Moreover, the itchiness result in the series with eye [6] (allergic eye disease, person, eye-drop containing 0.5% w/v tramadol) is “improved within a few minutes”. Besides, the “results in allergic eye disease (itchiness, redness)” value in the series on eye [6] (eye-drop containing 1.0% w/v tramadol, compared with 0.5% w/v) was “even more rapid and effective results”. The pain result in the series with eye [7] (eye-drop containing 0.5% w/v tramadol) is “reduced”. For the same compound, in the series with eye [7] (eye-drop containing 1.0% w/v tramadol), the pain result was “reduced the patient's pain further”. In addition, in the series on eye [7] (one hour after instillation of eye-drop containing 0.5% w/v tramadol, 312 milliOsmoles before instillation, person with dry eye), the tear osmolarity was 299 milliOsmoles. Also, the blepharitis result in the series with eye [8] (middle-aged male) is given as “improved”. Moreover, in the series with eye [8] (setting [12]), the irritable symptoms entry was “improvement”; the tear break-up time result was “improved, and so did the tear break-up time”.
